# Measured values from patent US20090318376A1, “High Throughput Screening Method of Binding Inhibitor Between caspase3 and XIAP and Binding Inhibitor Screened Thereby” (Korea Research Institute of Bioscience and Biotechnology, priority 2006, published 2009).
# Columns and labels:
# [1] = target: T1, binding between caspase3 and xIAP (Homo sapiens, UniProt P98170); test: protein chip (CI-chip) SPR imaging screening of inhibitors of interaction between caspase3 and xIAP; conditions: within the range from 50 to 400 μM; FIG. 3
# T1 construct: made in house; host or cells: E. coli BL21
# Text: Whether the obtained proteins bind to the gold chip having L-glutathione on the surface thereof, was pre-experimented. After a bacteria cell extract containing 20% glycerol, in which GST-tag-fused cas3 (29) obtained in Example 1-1 has been over-expressed, was dispersed in 384 microwell plate, it was spotted on the gold chip having L-glutathione on the surface thereof with a pin having a diameter of 335 μm under a constant humidity of 75% using automatic robotic arrayer(proteogen, CM-1000), and then subjected to RT shaking incubation for 3 hours, thus constructing Cl-chip having gold chip as a substrate.
# Inhibitors of interaction between caspase3 and xIAP were screened using the protein chip based on the gold chip prepared in example 1. 920 microorganism-derived samples, which was purely isolated or partially purified, were reacted with 15 μl solution (3.75 μl of more than 50% glycerol; 3 μl of material dissolved in DMSO at a concentration of less than 10 mg/ml; 7.5 μl of xIAP dissolved in PBS at a concentration of more than 1 mg/ml; 0.75 μl of PBS buffer) at 4° C. for 2 hours to apply to the protein chip. Inhibitory activity was analyzed using SPR imaging as the concentration of protein in solution was increased (FIG. 3).
# [2] = target: T2, binding of caspase3 and xIAP (Homo sapiens, UniProt P98170); test: pull down assay using tagged MBP; conditions: chromomycin increased from 50 μM to 200 μM; MBP resin, SDS PAGE; FIG. 4
# T2 construct: made in house; host or cells: E. coli BL21
# Protocol: In order to examine whether chromomycin, screened in the example 2, is activated by the reaction of caspase3 and xIAP, pull down assay using tagged MBP (Maltose Binding Protein) was performed. After xIAP and chromomyicin were added to MBP resin and allowed to react on ice for 2 hours, the resulting mixture was added with caspase3 and allowed to react for about 3 hours, and then washed with PBS buffer solution to load onto 10% SDS PAGE, thus examining the reactant (FIG. 4).
# [3] = test system: breast cancer cell line MDA-MB-231; test: inhibition of proliferation of cancer cell lines (WST-8); assay type: cell-based; conditions: Homo sapiens, WST-8, over 24 hours treatment, read-out: IC 50 (proliferation)
# Protocol: (§1) To examine inhibition of proliferation of the cell lines, the cancer cell lines HCT 116 (Mecoy's 5A medium), SW620 (RPMI 1640) and MDA-MB-231 (RPMI 1640) were cultured to disperse in a 96 well plate. SW620 and HCT116 were innoculated at a concentration of 7,000 cells/100 μl, and MDA-MB-231 was innoculated at a concentration of 5,000 cells/100 μl, respectively, and cultured overnight, followed by an additional reaction of over 24 hours after treating with 1 μl chromomycin prepared according to the concentration. Next, the resulting cells were added with 10 μl of WST-8, counted with an ELISA reader at 450 nm after 2 hours and calculated as a percentage of comparative control added only with DMSO. Inhibitory concentration (IC50), with respect to proliferation of cell lines MDA-MB -231, HCT116, SW620, was measured within the concentration range from 0 to 1 µg/ml by dissolving chromomycin in DMSO (Table 1).
# [4] = test system: colorectal cancer cell line HCT116; test: as above; assay type: cell-based; conditions: Homo sapiens, HCT-116, WST-8, over 24 hours treatment, read-out: IC 50 (proliferation)
# Protocol: as §1
# [5] = test system: colorectal cancer cell line SW620; test: as above; assay type: cell-based; conditions: Homo sapiens, SW-620, WST-8, over 24 hours treatment, read-out: IC 50 (proliferation)
# Protocol: as §1
# T1 sequence (P98170 whole entry): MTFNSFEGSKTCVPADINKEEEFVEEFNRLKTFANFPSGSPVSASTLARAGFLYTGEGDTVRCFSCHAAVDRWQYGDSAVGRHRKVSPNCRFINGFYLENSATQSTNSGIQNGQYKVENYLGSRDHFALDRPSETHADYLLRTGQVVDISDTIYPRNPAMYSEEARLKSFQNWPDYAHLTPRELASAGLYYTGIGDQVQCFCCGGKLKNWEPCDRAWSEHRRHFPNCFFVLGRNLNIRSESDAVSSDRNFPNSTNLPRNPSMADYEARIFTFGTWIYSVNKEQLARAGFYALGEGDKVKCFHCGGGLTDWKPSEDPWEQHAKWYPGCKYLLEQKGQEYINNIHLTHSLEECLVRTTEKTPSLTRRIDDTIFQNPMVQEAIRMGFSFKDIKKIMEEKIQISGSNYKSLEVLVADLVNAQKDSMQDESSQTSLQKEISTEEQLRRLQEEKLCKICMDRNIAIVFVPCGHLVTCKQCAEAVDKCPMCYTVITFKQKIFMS
# T2 sequence (P98170 whole entry): as above
smiles,measurement,setting,value
COC1C(O)CC(OC2CC(Oc3cc4cc5c(c(O)c4c(O)c3C)C(=O)[C@@H](OC3CC(OC4CC(OC6CC(C)(O)C(OC(C)=O)C(C)O6)C(O)C(C)O4)C(O)C(C)O3)[C@H]([C@H](OC)C(=O)[C@@H](O)[C@@H](C)O)C5)OC(C)C2OC(C)=O)OC1C (some centres unmarked) [Chromomycin],inhibition reaction in the protein chip (SPR imaging),[1],constant inhibition reaction concentration-dependently
same,resulting reactant of xIAP (MX) and caspase3 (Cas3) in pull down assay,[2],reduced
same,IC50,[3],8.4 nM
same,IC50,[4],6.7 nM
same,IC50,[5],80 nM
